According to patent publication US20170240556A1, “BIFLUORODIOXALANE-AMINO-BENZIMIDAZOLE KINASE INHIBITORS FOR THE TREATMENT OF CANCER, AUTOIMMUNEINFLAMMATION AND CNS DISORDERS” (4SC DISCOVERY GMBH, priority 2012, published 2017):

What was measured:
[1] = target: Casein kinase 1 delta (CSKN1D) (Homo sapiens, UniProt P48730); assay: Casein kinase assay, CK1 delta; assay type: biochemical; conditions: recombinant CSKN1D 5 nM, ATP 10 μM
[2] = target: Casein kinase 1 epsilon (CSKN1E) (Homo sapiens, UniProt P49674); assay: Casein kinase assay, CK1 epsilon; assay type: biochemical; conditions: recombinant CSKN1E 30 nM, ATP 10 μM
[3] = tested on: Hedgehog signaling pathway; assay: Hedgehog reporter assay (Gli Reporter - NIH3T3 Cell Line); assay type: cell-based; conditions: Mus musculus; Gli reporter NIH3T3 cells, murine SHH stimulation, 24 h; read-out: HH Assay
Method: In order to investigate the potency of test compounds to inhibit the Hedgehog signaling pathway, a Gli-Reporter assay was performed.
The “Gli Reporter—NIH3T3 Cell Line” contains the firefly luciferase gene under the control of Gli responsive elements stably integrated into murine NIH3T3 cells (cells purchased from Amsbio). The luciferase expression correlates with activation of the hedgehog signaling pathway. This cell line is validated for its response to stimulation with murine Sonic Hedgehog and to treatment with inhibitors of the hedgehog signaling pathway. A multiplexed viability assay was used to discriminate inhibition on the pathway activity from cell toxicity.
Growth Medium: DMEM, 10% Calf Serum, 1% Penicillin/Streptomycin 500 μg/ml Geneticin (G418 Stock 50 mg/ml).
25.000 cells per well were seeded into a white 96 well plate in 100 μl growth medium and incubated over night at 37° C. and 5% CO2. After removing the supernatant the test compounds and controls (known GLI inhibitor, e.g. GANT-61) were added in different concentrations in a final volume of 45 μl and incubated for 1 h at 37° C. and 5% CO2. For the stimulation of the Hedgehog pathway 5 μl of 10 μg/ml concentrated murine sonic hedgehog (SHH) was added to the cells. A final concentration of 1 μg/ml mSHH and 0.1% DMSO was reached per well. After incubation for 24 h at 37° C. the cells were investigated for viability and reporter activity.
Viability: For the determination of the viability of the treated cells the CellTiter-Fluor Kit from Promega was used. Essentially, only proteases of viable cells are able to cleave the cell-permeant substrate Gly-Phe-AFCoumarin (GF-AFC). By this cleavage the fluorescent AFC is set free and can be detected in a fluorescence reader. For this assay 10 μl of GF-AFC substrate (CellTiter-Fluor, Promega #G6082) was diluted in 2 ml assay buffer from the CellTiter-Fluor Kit and 10 μl of this dilution was added per well to the cells and incubated for 30 min at 37° C. The fluorescence was measured with excitation at 380-400 nm and emission at 505 nm.
Reporter activity: The firefly luciferase reporter activity was detected with the ONE-Glo™ Luciferase Assay System from Promega. For this assay 50 μl ONE-Glo luciferase reagent (Promega #E6120, contains cell lysis buffer and luciferin) was added to each well and incubated at room temperature for 5 min. Luminescence was detected in a plate reader and served as a degree for reporter activity.

Casein kinase 1 epsilon (CSKN1E), sequence (P49674 whole entry): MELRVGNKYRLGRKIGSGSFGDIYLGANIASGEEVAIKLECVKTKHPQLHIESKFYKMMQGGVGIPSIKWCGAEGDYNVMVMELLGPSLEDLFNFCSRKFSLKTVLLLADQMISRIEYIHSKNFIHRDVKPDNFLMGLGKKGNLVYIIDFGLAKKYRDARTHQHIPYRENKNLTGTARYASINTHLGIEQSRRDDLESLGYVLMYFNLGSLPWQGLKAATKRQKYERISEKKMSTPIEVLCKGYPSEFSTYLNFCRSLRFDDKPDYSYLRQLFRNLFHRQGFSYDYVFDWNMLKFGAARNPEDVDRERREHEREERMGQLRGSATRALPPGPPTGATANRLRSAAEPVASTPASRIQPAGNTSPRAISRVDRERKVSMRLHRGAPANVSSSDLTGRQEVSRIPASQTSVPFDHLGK
Casein kinase 1 delta (CSKN1D), sequence (P48730 whole entry): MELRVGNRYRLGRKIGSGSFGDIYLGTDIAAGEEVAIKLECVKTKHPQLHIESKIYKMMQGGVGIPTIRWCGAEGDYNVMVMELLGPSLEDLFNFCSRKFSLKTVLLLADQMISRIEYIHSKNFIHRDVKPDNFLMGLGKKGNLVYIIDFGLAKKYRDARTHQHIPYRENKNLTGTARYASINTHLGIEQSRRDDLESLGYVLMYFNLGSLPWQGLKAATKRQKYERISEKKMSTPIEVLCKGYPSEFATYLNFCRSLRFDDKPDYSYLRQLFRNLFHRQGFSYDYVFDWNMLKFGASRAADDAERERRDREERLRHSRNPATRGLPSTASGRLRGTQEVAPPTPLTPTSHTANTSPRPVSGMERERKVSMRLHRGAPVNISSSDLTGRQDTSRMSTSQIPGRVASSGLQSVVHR

SMILES	IC50 [1] [nM]	IC50 [2] [nM]	IC50 [3] [nM]
O=C(Nc1nc2cc3c(cc2[nH]1)OC(F)(F)O3)c1ncn[nH]1 [Compound 84, N-(2,2-difluoro-5H-[1,3]dioxolo[4′,5′:4,5]benzo[1,2-d]imidazol-6-yl)-1H-1,2,4-triazole-3-carboxamide]	> 1000	> 1000	–
O=C(O)c1cccc(C(=O)Nc2nc3cc4c(cc3[nH]2)OC(F)(F)O4)c1 [Compound 18B, 3-((2,2-Difluoro-5H-[1,3]dioxolo[4′,5′:4,5]benzo[1,2-d]imidazol-6-yl)carbamoyl)benzoic acid]	200 to 1000	200 to 1000	–
O=C(Nc1nc2cc3c(cc2[nH]1)OC(F)(F)O3)c1ccccc1 [Compound 49, N-(2,2-difluoro-5H-[1,3]dioxolo[4′,5′:4,5]benzo[1,2-d]imidazol-6-yl)benzamide]	< 200	< 200	–
O=C(Nc1nc2cc3c(cc2[nH]1)OC(F)(F)O3)c1coc(-c2cccs2)n1 [Compound 136, N-(2,2-difluoro-5H-[1,3]dioxolo[4′,5′:4,5]benzo[1,2-d]imidazol-6-yl)-2-(thiophen-2-yl)oxazole-4-carboxamide]	< 200	200 to 1000	–
O=C(Nc1nc2cc3c(cc2[nH]1)OC(F)(F)O3)c1cccs1 [Compound 45, N-(2,2-difluoro-5H-[1,3]dioxolo[4′,5′:4,5]benzo[1,2-d]imidazol-6-yl)thiophene-2-carboxamide]	200 to 1000	200 to 1000	–
O=C(Nc1nc2cc3c(cc2[nH]1)OC(F)(F)O3)c1cccc(Cl)c1 [Compound 41, 3-chloro-N-(2,2-difluoro-5H-[1,3]dioxolo[4′,5′:4,5]benzo[1,2-d]imidazol-6-yl)benzamide]	< 200	< 200	–
COc1ccc(C(=O)Nc2nc(C(=O)Nc3nc4cc5c(cc4[nH]3)OC(F)(F)O5)cs2)cc1 [Compound 69, N-(2,2-difluoro-5H-[1,3]dioxolo[4′,5′:4,5]benzo[1,2-d]imidazol-6-yl)-2-(4-methoxybenzamido)thiazole-4-carboxamide]	< 200	200 to 1000	–
COc1ccc(C(=O)Nc2nc(C(=O)Nc3nc4cc5c(cc4[nH]3)OC(F)(F)O5)ns2)cc1 [Compound 90, N-(2,2-difluoro-5H-[1,3]dioxolo[4′,5′:4,5]benzo[1,2-d]imidazol-6-yl)-5-(4-methoxybenzamido)-1,2,4-thiadiazole-3-carboxamide]	> 1000	> 1000	–
O=C(Nc1nc(C(=O)Nc2nc3cc4c(cc3[nH]2)OC(F)(F)O4)cs1)Nc1ccccc1OC(F)(F)F [Compound 26, N-(2,2-difluoro-5H-[1,3]dioxolo[4′,5′:4,5]benzo[1,2-d]imidazol-6-yl)-2-(3-(2-(trifluoromethoxy)phenyl)ureido)thiazole-4-carboxamide]	< 200	< 200	–
O=C(/C=C/c1ccccc1)Nc1nc(C(=O)Nc2nc3cc4c(cc3[nH]2)OC(F)(F)O4)co1 [Compound 9, 2-cinnamamido-N-(2,2-difluoro-5H-[1,3]dioxolo[4′,5′:4,5]benzo[1,2-d]imidazol-6-yl)oxazole-4-carboxamide]	> 1000	> 1000	–
COc1ccc(OC)c(S(=O)(=O)Nc2nc(C(=O)Nc3nc4cc5c(cc4[nH]3)OC(F)(F)O5)cs2)c1 [Compound 19, N-(2,2-difluoro-5H-[1,3]dioxolo[4′,5′:4,5]benzo[1,2-d]imidazol-6-yl)-2-(2,5-dimethoxyphenylsulfonamido)thiazole-4-carboxamide]	< 200	< 200	–
Nc1cccc(C(=O)Nc2nc3cc4c(cc3[nH]2)OC(F)(F)O4)c1 [Compound 87, 3-amino-N-(2,2-difluoro-5H-[1,3]dioxolo[4′,5′:4,5]benzo[1,2-d]imidazol-6-yl)benzamide]	< 200	200 to 1000	–
O=C(Nc1nc2cc3c(cc2[nH]1)OC(F)(F)O3)c1nc(NC(=O)c2ccccc2OC(F)(F)F)n[nH]1 [Compound 52, N-(2,2-difluoro-5H-[1,3]dioxolo[4′,5′:4,5]benzo[1,2-d]imidazol-6-yl)-3-(2-(trifluoromethoxy)benzamido)-1H-1,2,4-triazole-5-carboxamide]	< 200	200 to 1000	–

Second part, the molecule after the results:

IC50 [1] [nM]	IC50 [2] [nM]	IC50 [3] [nM]	SMILES
< 200	< 200	≤ 500	Cc1cc(C)n(-c2cccc(C(=O)Nc3nc4cc5c(cc4[nH]3)OC(F)(F)O5)c2)n1 [Compound 130, N-(2,2-difluoro-5H-[1,3]dioxolo[4′,5′:4,5]benzo[1,2-d]imidazol-6-yl)-3-(3,5-dimethyl-1H-pyrazol-1-yl)benzamide]
< 200	–	1000 to 15000	CN(C)c1cncc(C(=O)Nc2nc3cc4c(cc3[nH]2)OC(F)(F)O4)c1 [Compound 7B, N-(2,2-difluoro-5H-[1,3]dioxolo[4′,5′:4,5]benzo[1,2-d]imidazol-6-yl)-5-(dimethylamino)nicotinamide]
> 1000	> 1000	1000 to 15000	Nc1nccnc1C(=O)Nc1nc2cc3c(cc2[nH]1)OC(F)(F)O3 [Compound 7, 3-amino-N-(2,2-difluoro-5H-[1,3]dioxolo[4′,5′:4,5]benzo[1,2-d]imidazol-6-yl)pyrazine-2-carboxamide]
< 200	–	1000 to 15000	O=C(Nc1nc2cc3c(cc2[nH]1)OC(F)(F)O3)c1csc(-c2ccoc2)n1 [Compound 16B, N-(2,2-difluoro-5H-[1,3]dioxolo[4′,5′:4,5]benzo[1,2-d]imidazol-6-yl)-2-(furan-3-yl)thiazole-4-carboxamide]
< 200	–	1000 to 15000	O=C(Nc1nc2cc3c(cc2[nH]1)OC(F)(F)O3)c1csc(-c2cccs2)n1 [Compound 11B, N-(2,2-difluoro-5H-[1,3]dioxolo[4′,5′:4,5]benzo[1,2-d]imidazol-6-yl)-2-(thiophen-2-yl)thiazole-4-carboxamide]
< 200	–	≤ 500	O=C(Nc1nc2cc3c(cc2[nH]1)OC(F)(F)O3)c1cccc(N2CCCC2)c1 [Compound 122, N-(2,2-difluoro-5H-[1,3]dioxolo[4′,5′:4,5]benzo[1,2-d]imidazol-6-yl)-3-(pyrrolidin-1-yl)benzamide]
< 200	–	500 to 1000	CN(C)c1cccc(C(=O)Nc2nc3cc4c(cc3[nH]2)OC(F)(F)O4)c1 [Compound 102, N-(2,2-difluoro-5H-[1,3]dioxolo[4′,5′:4,5]benzo[1,2-d]imidazol-6-yl)-3-(dimethylamino)benzamide]
< 200	< 200	–	O=C(Nc1nc2cc3c(cc2[nH]1)OC(F)(F)O3)c1ccc(S(=O)(=O)N2CCOCC2)cc1 [Compound 117, N-(2,2-difluoro-5H-[1,3]dioxolo[4′,5′:4,5]benzo[1,2-d]imidazol-6-yl)-4-(morpholinosulfonyl)benzamide]
< 200	< 200	–	O=C(Nc1nc2cc3c(cc2[nH]1)OC(F)(F)O3)c1csc([N+](=O)[O-])c1 [Compound 30, N-(2,2-difluoro-5H-[1,3]dioxolo[4′,5′:4,5]benzo[1,2-d]imidazole-6-yl)-5-nitrothiophene-3-carboxamide]
< 200	–	1000 to 15000	O=C(Nc1nc2cc3c(cc2[nH]1)OC(F)(F)O3)c1cccc(-c2cc[nH]n2)c1 [Compound 5B, N-(2,2-difluoro-5H-[1,3]dioxolo[4′,5′:4,5]benzo[1,2-d]imidazol-6-yl)-3-(1H-pyrazol-3-yl)benzamide]
< 200	–	1000 to 15000	CN(C)c1cc(C(=O)Nc2nc3cc4c(cc3[nH]2)OC(F)(F)O4)ccn1 [Compound 125, N-(2,2-difluoro-5H-[1,3]dioxolo[4′,5′:4,5]benzo[1,2-d]imidazol-6-yl)-2-(dimethylamino)isonicotinamide]
< 200	< 200	–	O=C(Nc1nc2cc3c(cc2[nH]1)OC(F)(F)O3)c1cc([N+](=O)[O-])c[nH]1 [Compound 88, N-(2,2-difluoro-5H-[1,3]dioxolo[4′,5′:4,5]benzo[1,2-d]imidazol-6-yl)-4-nitro-1H-pyrrole-2-carboxamide]
200 to 1000	> 1000	–	Cc1ccccc1C(=O)Nc1nc2cc3c(cc2[nH]1)OC(F)(F)O3 [Compound 68, N-(2,2-difluoro-5H-[1,3]dioxolo[4′,5′:4,5]benzo[1,2-d]imidazol-6-yl)-2-methylbenzamide]
200 to 1000	200 to 1000	–	O=C(Nc1nc2cc3c(cc2[nH]1)OC(F)(F)O3)c1csc(Br)n1 [Compound 55, 2-bromo-N-(2,2-difluoro-5H-[1,3]dioxolo[4′,5′:4,5]benzo[1,2-d]imidazol-6-yl)thiazole-4-carboxamide]
